Experimental data as given in PubChem BioAssay AID2305 (GlaxoSmithKline (GSK), 2010).
pIC50: −log10 of the molar value.

system: P. falciparum 3D7 growth, pLDH absorbance; experiment: blood-stage malaria parasite growth potency – strain 3D7, dose response (AID 2305)

SMILES	pIC50
CC(C)c1cccc(C(NC(=O)[C@H]2Cc3ccccc3CN2C(=O)c2cccc(N3CCOCC3)c2)C2CCCC2)c1 (stereo not given in full)	6.14
CC(C)N1CCN(C(=O)c2ccc(CNCCCN3CCN(c4cccc(Cl)c4Cl)CC3)o2)CC1	6.13
Cc1[nH]c(C)c([N+](=O)[O-])c(=O)c1-c1ccc(Oc2ccc(OC(F)(F)F)cc2)cc1	6.60
CCOc1cc(CC)ccc1C1CCN(CCCCNC(=O)c2ccc(NC(=O)c3ccc(Cl)cc3)cc2)CC1	6.13
CCCN(CCC)CCCNc1ccc(C(=O)Nc2ccc(C(C)C)cc2)cc1[N+](=O)[O-]	6.15
COc1cc2nc(N3CCC(CNC(=O)c4cccc5cc[nH]c45)CC3)nc(N)c2cc1OC	5.80
C[C@@H]1CN(c2cnn(Cc3ccc(NC(=O)Nc4ccc(F)cc4[N+](=O)[O-])cc3)c(=O)c2Cl)C[C@H](C)N1	6.09
N#Cc1ccc(NC(=O)N2CCCN(CCCCCNC(=O)/C=C/c3ccc(Cl)c(Cl)c3)CC2)cc1	6.11
C/C=C1/CN2CC[C@H]1C[C@H]2[C@H](O)c1ccnc2ccc(OC)cc12	6.70
Cc1cc(=O)c(-c2ccc(OCc3ccc(OC(F)(F)F)cc3)cc2)c(C)[nH]1	6.13
CCN(CC)C(=NCCCCCCN=C(/N=C(/N)Nc1ccc(C)cc1)N(CC)CC)/N=C(/N)Nc1ccc(C)cc1	6.27
CS(=O)(=O)c1ccc(CCNCc2ccc(-c3ccc(CN(C(=O)c4ccc(Cl)nc4)C4CCN(Cc5ccccc5)CC4)cc3)nc2)cc1	6.10
c1cc(CN2CCCCC2)cc(-c2ccc(-c3nc4ccccc4[nH]3)s2)c1	6.06
COC(=O)CNC(c1ccccc1)c1cc(Br)ccc1NC(=O)c1ccccc1Br (stereo not given)	6.00
CC(C)(C)OC(=O)N[C@@H](Cc1ccccc1)C(=O)Nc1cccc(-c2cccc(NC(=O)[C@H](Cc3ccccc3)NC(=O)OC(C)(C)C)c2)c1	6.21
Cc1cc(C=C2SC(=Nc3ccccc3)N(C3CCCC3)C2=O)c(C)n1-c1ccc(Cl)cc1	6.06
CCCc1cc(C)ccc1OCCCON1C(NC(=O)OCC)=NC(NC(=O)OCC)=NC1(C)C	7.40
CCOc1ccc(-c2nc(NC(=O)COc3ccc(OC)cc3)sc2C)cc1	6.27
Cc1cc(CN2CC[C@H](NC(=O)c3ccc(Cl)c(Cl)c3)C2)ccc1OCCN1CCNCC1	6.03
COc1ccc(CN2CCC(CNCCc3c(Cl)cccc3Cl)CC2)cc1	6.37
COc1ccc(C(=O)CCC(=O)N(Cc2ccc(-c3ccc(CNCCc4ccccc4)cn3)cc2)C(C)CN(C)C)cc1F (stereo not given)	6.12
CN(C)S(=O)(=O)c1cc(-c2ccc3nccc(-c4cccc(S(N)(=O)=O)c4)c3c2)cnc1N	6.60
CN1CCN(CC(=O)Nc2cccc(-c3ccc(-c4nc5ccc(C(F)(F)F)cc5[nH]4)cc3)c2)CC1	6.28
CCNc1cc(C(=O)N[C@@H](Cc2ccccc2)[C@H](O)CN[C@@H]2CCc3ccccc32)cc(N2CCCC2=O)c1	5.99

SMILES	pIC50
Cc1ccccc1C1CCN(c2ccc(NC(=O)c3ccc(Cl)nc3)cc2)CC1	5.99
COc1ccc(CN(C)CCCSc2ccc(NC(=O)c3cccc4c(=O)cc(-c5ccccc5)[nH]c34)cc2)cc1OC	6.04
Cc1cc(N[C@@H](Cc2ccccc2)C(=O)NCCCOC(C)C)nc(NCCc2ccc(F)cc2)n1	6.03
Cc1cccc(C(=O)N2CCN(Cc3cccc(NC(=O)c4ccco4)c3)CC2)c1	6.12
CC(Cc1ccc(CNC(=O)NCc2ccc(CC(C)NCCc3cccc(Cl)c3)cc2)cc1)NCCc1cccc(Cl)c1 (stereo not given)	6.16
NCC(=O)NC12CC3CC(CC(C3)C1)C2	5.92
NC(=O)c1ccc(-c2ccc3ccnc(N)c3c2)cc1	6.38
Cc1cc(NC(=O)c2cccs2)ccc1OC1CCN(Cc2ccccc2)CC1	6.06
CCC(C)NS(=O)(=O)c1ccc2nc(Nc3ccc(C)c(Cl)c3)n(C3CCCCC3)c2c1 (stereo not given)	6.29
O=C(NC1CC1)c1cnc(N2CCC(Oc3ccc(Cl)cc3)CC2)c(Cl)c1	5.96
N#Cc1ccc(-c2ccc(C(=O)NCCCCN3CCC(c4ccc5c(c4OCc4ccccn4)CCCC5)CC3)cc2)cc1	6.09
CCOc1ccc2c(NN=Cc3cc(OC)c(OC)cc3OC)cc(C)nc2c1	6.00
Cc1ccc(O)cc1Nc1ccnc2cc(-c3nccs3)ccc12	6.06
Cc1cccc2[nH]c(-c3ccc(-c4cccc(CNCC5CCCO5)c4)cc3)nc12 (stereo not given)	6.15
Cc1cccc2[nH]c(-c3ccc(-c4cccc(NC(=O)Nc5ccsc5)c4)s3)nc12	6.27
COCCN1CCC(N(Cc2ccc(-c3ccc(C(F)(F)F)cc3)cc2)C(=O)Cn2c(CCc3cccc(F)c3F)cc(=O)c3c2CCC3)CC1	5.88
CC(C)Nc1nc(NCCc2cnc[nH]2)nc(NCc2cccc3ccccc23)n1	6.00
O=C(Nc1cc(Cl)cc(Cl)c1)c1cnn(-c2ccc(F)cc2)c1C1CCNCC1	6.07
CCN(CC)CCN(Cc1ccc(-c2ccc(C(F)(F)F)cc2)cc1)C(=O)Cn1c(CCc2cccc(F)c2F)c(C)c(=O)c2ccccc21	6.03
O=C(Nc1ccc(OC2CCN(Cc3ccsc3)CC2)c(Cl)c1)c1ccc(F)cc1	6.19
O=C(NCc1cccc(F)c1)c1ccc(O)c(-c2cc(Cl)cc(Cl)c2)c1	6.25
CC[C@H](NC(=O)c1c(CC2CCN(CC(C)=O)CC2)c(-c2ccccc2)nc2ccccc12)c1ccccc1	6.42
Nc1cnc(C#Cc2cc3ncnc(N(CCN4CCOCC4)c4ccc(OCc5cccc(F)c5)c(Cl)c4)c3s2)cn1	5.98
NC(=O)c1cccc(Nc2nccc(Nc3ccc4[nH]c(-c5ccccc5)cc4c3)n2)c1	6.11

SMILES	pIC50
COc1ccc(CNCc2ccc(F)cc2)cc1-c1cccc(S(=O)(=O)NCCN2CCCC2)c1	6.10
Cc1[nH]c2ccccc2c1C1=CCN(CCCCC2(C)C(=O)Nc3ccccc32)CC1 (stereo not given)	6.64
CCOc1cc(C(=O)NC2CCN(Cc3ccccc3)CC2)ccc1-c1nc2cc(Cl)c(F)cc2[nH]1	6.10
N#CN1CC[C@H](CS(=O)(=O)c2cccc(Br)c2)C1	6.06
Cc1cc(N)c2cc(NC(=O)CCC(=O)Nc3ccc4nc(C)cc(N)c4c3)ccc2n1	6.02
CC(C)NC(C)(C)CN(Cc1ccc(-c2ccc(C(F)(F)F)cc2)cc1)C(=O)Cn1c(CCc2cccc(F)c2F)nc(=O)c2ccccc21	6.04
COc1cc(OC)c(NC(=O)COc2ccc(C)cc2)cc1Cl	6.16
Cc1cccc2[nH]c(-c3cccc(-c4cccc(NC(=O)CNc5ccc(C(N)=O)cc5)c4)c3)nc12	6.55
CC1(CCN2CCC(c3c[nH]c4cnccc34)CC2)CCCc2c(Br)cccc2C1=O (stereo not given)	6.70
CC(C)NCc1ccc(-c2cccc(-c3nc4ccc(F)cc4[nH]3)c2)cc1	6.39
COc1cc(C)nc2ccc(NC(=O)c3cc([N+](=O)[O-])cc([N+](=O)[O-])c3)cc12	6.41
COc1ccc(-n2nc(C(=O)NCc3ccccc3OC)c3ccccc3c2=O)cc1	6.66
O=C(Nc1cccc2ccccc12)N1CCc2cc3nccc(N4CCN5CCC[C@H]5C4)c3cc21	6.05
COc1ccc(NC(=O)Nc2ccc(Nc3nc(C)cc(N(C)C)n3)cc2)cc1	6.35
CCc1ccc(NC(=O)c2ccc(CN3CCCN(CCC(C)C)CC3)cc2)cc1	6.20
Cc1cccc2[nH]c(-c3ccc(-c4cccc(CNCc5ccc(CN)cc5)c4)s3)nc12	6.21
O=C(NCC1CCN(CC2CCCCC2)C1)c1cc(-c2cccc(Cl)c2)cs1 (stereo not given)	5.96
CCOc1cc(C)ccc1C1CCN(CCCCNC(=O)c2cnc(-c3ccc(C(F)(F)F)cc3)[nH]2)CC1	6.11
CC1(C)CC(=O)c2c(O)cc(OCc3ccncc3)cc2O1	5.98
CN(C)CC(=O)Nc1ccc(Nc2nccc(NCC(O)c3ccccc3)n2)cc1 (stereo not given)	6.01
S=C(NCCc1ccccc1)Nc1ccc2ncsc2c1	5.85
CCN(CC)CC(O)c1cc(-c2ccc(OC)cc2)nc2cc(Cl)ccc12 (stereo not given)	7.15
CCC[C@@H]([C@@H](CC1CCCCC1)C(=O)N[C@@H](CCOC(=O)NCC)C(=O)Nc1nccs1)N(O)C=O	7.10
Cc1cnc(Nc2cccc(CCN3CCOCC3)c2)nc1NC(C)C	6.13

SMILES	pIC50
Cc1ccc(Oc2c(-c3ccccc3CN3CCCC3CN(C)C)cnn(C)c2=O)cn1 (stereo not given)	5.94
COc1ccc(Nc2nccc(NCC(O)c3cccc(C(F)(F)F)c3)n2)cc1 (stereo not given)	6.05
C1=C(c2c[nH]c3ccccc23)CCN(Cc2ccccc2)C1	5.98
COc1cc(NC(=O)/C=C/c2ccc(-c3ccccc3)cc2)ccc1OCCN(C(C)C)C(C)C	6.08
Cc1cc(N(C)C)nc(Nc2ccc(NS(=O)(=O)c3ccccc3)cc2)n1	5.87
Cc1cc(OCCCN2CCCCC2)ccc1NC(=O)COc1ccc(Cl)cc1C(=O)c1cc(C#N)cc(C(F)(F)F)c1	5.99
Cc1nc(N2CCC(C)CC2)c2c3c(sc2n1)CCCC3	5.97
C[C@@H]1CN(c2cnn(Cc3ccc(NC(=O)Nc4ccc(-c5ccccc5)cc4)cc3)c(=O)c2Cl)C[C@H](C)N1	6.43
Cc1ccnc(NC(c2cccc(Cl)c2Cl)c2ccc3cccnc3c2O)c1 (stereo not given)	6.00
COc1cc(C(=O)Nc2cccc(-c3nc4ccccc4[nH]3)c2)ccc1OC(C)=O	6.12
COc1ccc2c(ccc3c2ncc2c(=O)n(-c4ccccc4)[nH]c23)c1	6.28
CCN(CC)C(=O)c1cnc(-c2ccccc2)nc1Oc1cccc(Cl)c1	5.94
COc1cc([N+](=O)[O-])ccc1NC(=O)c1cc(Cl)ccc1O	5.94
N#Cc1ccc(-c2ccc(C(=O)NCCCCN3CCC(c4ccc5c(c4OCc4ccncc4)CCCC5)CC3)cc2)cc1	6.12
N#Cc1cccc(NC(=O)NC2CCN(CCCCCNC(=O)/C=C/c3ccc(Cl)c(Cl)c3)CC2)c1	6.15
O=C(Nc1ccc(Cl)cc1)Nc1cccc(-c2ccc(-c3nc4ccccc4[nH]3)cc2)c1	6.03
COc1ccc(NC(=O)N2CCCN(CCCCCNC(=O)/C=C/c3ccc(C(F)(F)F)cc3)CC2)cc1Cl	6.01
CN(C1CCC(NC(=O)/C=C/c2ccccc2)CC1)C1CC2(CCN(C(=O)OC(C)(C)C)CC2)c2ccccc21 (stereo not given)	6.09
Fc1ccc(Nc2ccnc3cc(I)ccc23)c(Cl)c1	5.97
Cc1ncccc1C(=O)Nc1cccc(-c2cccc(-c3nc4c(C)cccc4[nH]3)c2)c1	6.02
CN1CCN(c2ccc(-c3nc4c(C(N)=O)c(OCc5cc(Cl)cc(Cl)c5)ccc4[nH]3)cc2)CC1	6.18
Cc1ccc(CN2CCC(Oc3cccc(NC(=O)c4ccc(C(F)(F)F)cc4)c3)CC2)cc1	5.99
O=C(Nc1ccccc1Cc1ccccc1)c1ccccc1[N+](=O)[O-]	6.07
